Laboratory results: PubChem BioAssay (NCI)
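These data come from cells grown in 96-well plates and exposed to compound for 48 hours at five concentrations. GI50 is the concentration that inhibits growth by half. TGI denotes the concentration required for complete inhibition of growth.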

Columns and labels:
Assay in all cases: NCI tumour cell line growth inhibition, 48 h
[1] = test system: OVCAR-4 ovarian
[2] = test system: SK-MEL-5 melanoma
[3] = test system: 786-0 renal
[4] = test system: HCC-2998 colon
[5] = test system: NCI-H226 lung
[6] = test system: DU-145 prostate
[7] = test system: NCI-H23 lung
[8] = test system: SNB-19 CNS
[9] = test system: HOP-62 NSCLC
[10] = test system: HT29 colon

Compound	GI50 [1] [µM]	TGI [1] [µM]	GI50 [2] [µM]	TGI [2] [µM]	GI50 [3] [µM]	TGI [3] [µM]	GI50 [4] [µM]	TGI [4] [µM]	GI50 [5] [µM]	TGI [5] [µM]	GI50 [6] [µM]	TGI [6] [µM]	GI50 [7] [µM]	TGI [7] [µM]	GI50 [8] [µM]	TGI [8] [µM]	GI50 [9] [µM]	TGI [9] [µM]	GI50 [10] [µM]	TGI [10] [µM]
CCN(CC)c1ccc(N=C2C=C(C(=O)Nc3ccc(S(C)(=O)=O)cc3)C(=O)c3ccccc32)c(C)c1	8.91	> 100	5.84	> 100	> 100	> 100	> 100	> 100	> 100	> 100	> 100	> 100	82	> 100	4.39	> 100	91.7	> 100	> 100	> 100
CCN(CC)CCOc1ccc(Nc2ncc3cc(-c4c(Cl)cccc4Cl)c(=O)n(CCOC)c3n2)cc1	0.946	6.99	1.51	5.94	0.0324	5.28	1.25	3.57	0.1	7.89	0.217	2.8	0.806	3.95	0.458	6.01	0.0715	7.05	0.105	2.27
COc1ccc(Nc2ccnc(NCCNc3ccnc4cc(Cl)ccc34)n2)cc1	1.45	13.8	1.55	2.95	1.87	4.33	1.5	3.48	7.29	21.1	5.03	17.6	2.75	14.9	2.86	12	3.56	18.4	0.546	8.28
CN(C)C(=S)NN=C(c1ccccn1)c1ccccn1	< 0.01	> 83.1	0.0629	3.45	< 0.0232	1.26	0.0327	21.2	0.0445	12.7	0.232	> 33.7	< 0.01	16.3	3.13	> 100	< 0.01	0.0273	< 0.01	> 100
Cc1[nH]c(C(=O)Nc2ccc(C(=O)N3CCNCC3)cc2OC(C)C)c(Cl)c1Cl	3.57	11.8	1.73	3.13	1.63	3.18	1.78	3.38	2.5	5.79	2.06	4.06	1.95	4.21	1.89	3.95	1.81	4.65	1.76	3.26
Cc1ccc2c[c]1[Hg][CH2]COS2(=O)=O	11.3	23.4	16.7	30.3	18.1	32	15.7	34.5	19.8	43.5	18.8	32.8	23.4	49.2	> 100	> 100	71.7	> 100	17.9	31.8
C=C1C(=O)O[C@H]2[C@H]1CC/C(CNS(=O)(=O)c1ccc3ccccc3c1)=C\CC[C@@]1(C)O[C@@H]21	4.2	18.7	2.89	9.67	1.62	3.22	3.68	11.3	13.9	34.8	1.34	3.56	2.03	6.14	12	26.7	12.5	29.6	1.94	3.91
C[N+](C)([O-])CCCNc1c2ccccc2nc2cccc([N+](=O)[O-])c12		3.16		0.327		0.872		0.393		1.39		1.49		0.676		3.2		3.23		0.606
